Measured values from the supplement of paper PMC10307832.

How the values were obtained:
Assay in all cases: relative viability (nuclei count vs DMSO), 5 days (fraction); higher = more cells survive
[1] = compound: CCC1=CN=CN=C1N2CCN(CC2)CC3=NC4=C(N3)C=C(C=C4)C(F)(F)F
Outline: (§1)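 Nuclei counted with MetaXpress define viability as the ratio of treated to vehicle wells, given as a median across plates. The lung cancer cell lines were in 1536-well plates, pinned with five √10-spaced library-drug doses and imaged at 4× after 5 days and Hoechst staining. Plates passed with control CV below 25% and at least one doubling.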

[2] = compound: CCn1c(-c2nonc2N)nc2cnc(Oc3cccc(NC(=O)c4ccc(OCCN5CCOCC5)cc4)c3)cc21
Outline: as §1

[3] = compound: N=C1NC(=O)/C(=C/c2ccc(O)cc2)S1 [Mirin]
Outline: as §1

[4] = compound: CCC1=CN=CN=C1N2CCN(CC2)CC3=NC4=C(N3)C=C(C=C4)C(F)(F)F + Cc1nc(NC(=O)N2CCC[C@H]2C(N)=O)sc1-c1ccnc(C(C)(C)C(F)(F)F)c1 [Alpelisib] (partner 2 µM)
Outline: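 Dosing by pin tool came one day after lung cancer cell lines were seeded in 1536-well plates, using either one drug or a fixed anchor-drug dose plus five library-drug doses (not always all listed) in √10 steps. After 5 days, nuclei were counted on 4× images. Relative viability is treated-well nuclei count divided by vehicle-well nuclei count, and values are medians of duplicate plates.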

Cell Line	relative viability ([1]; 0.04 µM)	relative viability ([1]; 0.1265 µM)	relative viability ([1]; 0.4 µM)	relative viability ([1]; 1.265 µM)	relative viability ([1]; 4 µM)	relative viability ([2]; 0.04 µM)	relative viability ([2]; 0.1265 µM)	relative viability ([2]; 0.4 µM)	relative viability ([2]; 1.265 µM)	relative viability ([2]; 4 µM)	relative viability ([3]; 0.25 µM)	relative viability ([3]; 0.7906 µM)	relative viability ([3]; 2.5 µM)	relative viability ([3]; 7.906 µM)	relative viability ([3]; 25 µM)	relative viability ([4]; first compound 0.04 µM)	relative viability ([4]; first compound 0.1265 µM)	relative viability ([4]; first compound 0.4 µM)	relative viability ([4]; first compound 1.265 µM)	relative viability ([4]; first compound 4 µM)
HCC-44	0.961	0.972	0.968	1.04	0.982	1.01	1.05	0.565	0.326	0.321	0.987	1.1	0.991	0.925	1.18	0.789	0.746	0.815	0.743	0.713
RERF-LC-KJ	0.956	0.968	1.01	0.924	0.991	1.02	0.971	0.872	0.619	0.637	1.07	1.08	1.01	1.04	1	0.866	0.676	0.834	0.582	0.743
LOU-NH91	0.894	0.954	0.963	0.839	1.01	1.08	0.854	0.664	0.454	0.523	0.914	0.738	0.981	0.912	1.21	0.621	0.689	0.712	0.63	0.72
PC-3 [JPC-3]	1.01	0.947	0.965	1.01	1.02	1.02	0.976	0.982	0.947	0.926	1.07	1.04	1.01	1.12	1.2	1.06	0.94	1.02	1.04	0.96
NCI-H2126	1	0.977	0.969	0.891	1.02	1.09	1.04	0.74	0.792	0.943	1.03	0.908	0.995	1	0.979	0.74	0.756	0.722	0.639	0.745
LU99A	1.14	0.904	0.902	0.821	0.92	1.02	0.694	0.67	0.536	0.504	0.997	0.783	0.922	0.864	0.857	0.524	0.527	0.53	0.568	0.585
BEN	0.836	0.929	0.928	0.594	0.675	0.92	0.816	0.514	0.362	0.452	0.857	1.01	1.2	0.812	0.549	0.961	0.965	0.898	0.574	0.583
SW 1573	0.925	1.08	0.912	0.858	0.941	1.1	0.992	0.74	0.488	0.338	0.986	0.825	0.986	0.968	0.779	0.591	0.646	0.745	0.579	0.687
NCI-H1975	1.04	0.951	0.931	0.844	0.942	0.824	0.636	0.49	0.427	0.304	1.07	1.03	0.94	1.01	0.979	0.641	0.633	0.605	0.61	0.527
SK-LU-1	1.1	0.969	0.967	0.808	0.994	1.16	0.795	0.672	0.452	0.566	1.14	1.07	1.07	0.809	0.905	1.03	0.995	1.04	0.771	1
A549	0.978	0.868	0.921	0.934	0.89	1.24	1.01	0.742	0.116	0.116	1.01	0.982	1.05	0.913	0.953	0.763	0.657	0.849	0.698	0.831
NCI-H460	0.998	0.956	0.971	0.926	0.972	1.06	0.945	0.852	0.337	0.36	1.04	0.954	1.02	0.992	1.02	0.445	0.559	0.385	0.398	0.583
LCLC-103H	1.02	0.927	0.928	0.841	1.11	1.09	0.981	0.783	0.705	0.775	0.99	0.977	1.05	0.929	1.07	0.901	1.05	0.952	0.932	1.15
HCC-78	0.875	0.894	0.888	0.746	0.756	1.2	1.08	0.75	0.955	1.16	0.887	0.838	1.11	0.894	1.09	0.188	0.348	0.333	0.4	0.279
NCI-H1915	0.992	0.976	0.926	0.809	1.05	1.11	1.01	0.811	0.331	0.404	1	–	0.984	0.951	1.03	1.1	1.03	1.06	0.957	1.03
